Measured values from patent US9820981B2, “Treatment of retinopathy of prematurity (ROP)” (The Cleveland Clinic Foundation, priority 2013, dated 2017).

What was measured:
[1] = test system: oxygen-induced retinopathy (OIR); test: Oxygen-induced retinopathy (OIR) mouse model, retinal flatmounts; assay type: in vivo; conditions: for reduction of capillary dropout in retinal flatmounts (percent avascular area of total retinal area): P17, each at optimal dose (10 μg/g FG-4592, 200 μg/g DMOG) i.p. at P6, P8, P10
Description: The PBS-treated pup has an ischemic, posterior retina compared to the FG-4592-treated pup. Pups were treated with intraperitoneal injection of 10 μg/g body weight FG-4592 at P6, P8, and P10 while in 75% hyperoxia. At P12, pups were removed to room air with their nursing mothers and sacrificed at P17. Eyes were removed and fixed for 15 minutes in fresh 4% paraformaldehyde (PFA) before isolating whole retina, permeabilizing and lectin staining, then flat mounting for fluorescence microscopy.
An automated computer program (ImagePro version 7.0) measures capillary dropout and neovascular tufting seen in 3B.
The mouse model of ROP used in this study is based on a well-established protocol by Smith et al. (L. E. Smith, E. Wesolowski, A. McLellan, S. K. Kostyk, R. D'Amato, R. Sullivan, and P. A. D'Amore. Oxygen-induced retinopathy in the mouse. Investigative ophthalmology & visual science. 35:101-111 (1994)) that involves exposing pups and their nursing mothers to 5 days of hyperoxia (75% oxygen) during P7 through P12 in the wild type C57BL6 (WT) pups. A Plexiglas incubator with an oxygen sensor and feedback system ProOx (Biospherix, Lacona, N.Y.) was used to ensure continuous hyperoxia. Animals were injected intraperitoneally with FG-4592 (10 μg/g), DMOG (200 μg/g) or control PBS in the equivalent volume at P6, P8, and P10. […] Flatmount preparation and lectin (GS-IB4-Alexa568, Life Technologies, Grand Island, N.Y.) staining was performed essentially as described elsewhere (K. M. Connor, N. M. Krah, R. J. Dennison, C. M. Aderman, J. Chen, K. I. Guerin, P. Sapieha, A. Stahl, K. L. Willett, and L. E. Smith. Quantification of oxygen-induced retinopathy in the mouse: a model of vessel loss, vessel regrowth and pathological angiogenesis. Nat Protoc. 4:1565-1573 (2009); A. Stahl, K. M. Connor, P. Sapieha, K. L. Willett, N. M. Krah, R. J. Dennison, J. Chen, K. I. Guerin, and L. E. Smith. Computer-aided quantification of retinal neovascularization. Angiogenesis. 12:297-301 (2009)). Retinas were dissected using four radial cuts, and flatmounted onto glass slides with Vectashield (Vector Labs, Burlingame, Calif.). All animal procedures were performed in accordance with the Cleveland Clinic Institutional Animal Care and Use Committee.
For quantitative analysis of avascular area, vascular tortuosity, and tufting, retinal images were batch processed using a customized macro and algorithms generated in Image-Pro Plus 7.0 (Media Cybernetics, Silver Spring, Md.) as previously described (J. E. Sears, G. Hoppe, Q. Ebrahem, and B. Anand-Apte. Prolyl hydroxylase inhibition during hyperoxia prevents oxygen-induced retinopathy. Proceedings of the National Academy of Sciences of the United States of America. 105:19898-19903 (2008)).
FG-4592 was solubilized as a stock solution of […] in DMSO, which was then diluted 50 times in PBS to a concentration of 1 μg/microliter to facilitate a final dose of 10 μg/g body weight of each mouse pup. Three injections were administered during the hyperoxic phase of oxygen-induced retinopathy (OIR) at 48-hour intervals.

[2] = test system: serum erythropoietin (Epo), a HIF-regulated gene product; test: Immunoblot of serum erythropoietin (Epo) response after single intraperitoneal injection; assay type: in vivo; conditions: P8 mouse pups, serum 6 hours after a single intraperitoneal injection
EPO = test: Serum EPO ELISA; assay type: in vivo; conditions: P8 mouse pups
Description: (§1) Wild-type (WT) and HIF-1α knock-out (KO) P8 mouse pups were injected with 10 μg/g FG-4592 and, following indicated periods of time, the pups were anesthetized by ketamine/xylazine, blood was drawn using heparinized 27-gauge needle and syringe. Serum was diluted 1:10 (EPO), 1:5 (VEGF) or 1:100 (ANGPTL-3) with sample diluent provided by the manufacturer (R&D Systems, Minneapolis, Minn.). Spectrophotometric measurements of EPO, VEGF, and ANGPTL-3 quantities were obtained according to the manufacturer's instructions.

HIF-1α = test: Western blot of HIF-1α protein in organ lysates; assay type: in vivo; conditions: mouse pups, versus PBS
Description: Mice were sacrificed by ketamine/xylazine overdose, organs collected and placed in RIPA buffer (200 μL per 50 mg of tissue, pH 7.0) containing protease inhibitors Complete (Roche, Indianapolis, Ind.), disrupted using a tight fitting microtube pestle, and centrifuged to remove particulate matter. A Pierce BCA protein assay (Thermo Scientific, Rockford, Ill.) was used to measure protein concentrations. Lysates were subjected to 4-20% SDS-PAGE and electro-transferred to PVDF membranes for immunoblotting. Membranes were blocked with 5% nonfat dried milk in Tris-buffered saline and 0.1% Tween-20, then probed with anti-HIF-1α, antibody (Cayman Chemical, Ann Arbor, Mich.) overnight. After washing and secondary antibody hybridization, membranes were exposed by chemiluminescence (Western Lighting, PerkinElmer, Waltham, Mass.).
FIG. 5A is images of Western blots detecting HIF-1α protein in organ lysates derived from pups treated with PBS or FG-4592, and FIG. 5B is a graph of integrated optical density of the immunoblots shown in FIG. 5A.

VEGF = test: Serum VEGF ELISA; assay type: in vivo; conditions: P8 mouse pups
Description: as §1

[3] = test system: Hepatic EPO, VEGFA and ANGPTL3 mRNA; test: Reverse transcription and quantitative PCR of hepatic mRNA; assay type: in vivo, mouse; conditions: data not shown
Description: Tissue from liver, kidney, brain and retina were placed into 1 mL of RNAlater reagent (Qiagen, Germantown, Md.) and stored at −80° C. Total RNA was extracted using RNeasy kit (Qiagen) and measured using NanoDrop and standard spectrophotometric parameters. One μg of total RNA from each sample was retrotranscripted to cDNA using QuantiTect Reverse Transcription Kit (Qiagen). One μl of cDNA samples was used as template for amplification reactions carried out with the QuantiTect SYBR Green PCR kit (Qiagen) following the manufacturer's instructions. PCR amplifications were performed in a 7900HT Fast Real-Time PCR system (Applied Biosystems, Foster City, Calif.) and quantitative PCR data analysis was performed with RQ Managed software (Applied Biosystems).

[4] = test system: angiopoietin-like protein 3 (ANGPTL-3); test: Serum ANGPTL-3 ELISA; assay type: in vivo; conditions: P8 mouse pups
Description: as §1

[5] = test system: HIF prolyl hydroxylase (PHD); test: In vivo localization of PHD inhibition in luc-ODD mouse (luminescence imaging, luciferase activity in organ lysates); conditions: for localization of luminescence, whole animal imaging: luc-ODD mouse
Description: Gt(ROSA)26Sor^tml(Luc)Kael (luc-ODD) mice were obtained from the Jackson Laboratory (Bar Harbor, Me.). Pups were given i.p. injections of 10 μg/g FG-4592 at indicated periods of time prior to live imaging. Mice were injected with mixture of 100 mg/kg ketamine, 10 mg/kg xylazine and 50 mg/kg luciferin and placed in a light-tight chamber connected to a supercooled, charge-coupled camera. Photons were collected for 15 seconds using IVI 100 Imaging System (PerkinElmer, Waltham, Mass.).
The luc-ODD mouse has a transgene comprised of luciferase fused to the ODD and, therefore, serves as a reporter gene in vivo of where hydroxylation of the ODD is inhibited, observed as luminescence in tissue lysates and whole animal imaging.
Quantitation of the effect shown in FIG. 4A supports the specificity of this effect in tissue lysates.

[6] = murine OIR model, 10 eyes each group

| Structure (SMILES) | reduction of capillary dropout in retinal flatmounts (percent avascular area of total retinal area) ([1]; versus PBS) [fold] | potency relative to DMOG, quantification of serum Epo immunoblot [2] | circulating (serum) levels of EPO (EPO; 10 μg/g FG-4592 i.p.) | time of peak EPO production after treatment (EPO; time-course study) [h] | organ specific stabilization of HIF-1α protein (integrated optical density) (HIF-1α) | serum levels of VEGF (VEGF; 10 μg/g FG-4592 i.p.) | time of peak VEGF levels after treatment (VEGF; time-course study) [h] | preservation of retinal vessels in retinal flatmounts ([1]; 10 μg/g i.p. at P6, P8, P10 in 75% hyperoxia, sacrificed P17, versus PBS) | benefit in direct comparison with DMOG ([1]; OIR model, 10 μg/g FG-4592 versus 200 μg/g DMOG) | ischemic, hypoxic retina (isolectin and Hypoxyprobe staining) ([1]; P17, versus sham PBS injection) | rate of decrease of central avascular region (retinovascular repair) ([1]; flatmounts at P12, P15, P17, treated versus PBS) | inhibition of capillary drop-out compared with DMOG [1, 6] | inhibition of neovascularization subsequent to capillary drop-out compared with DMOG [1, 6] | Hepatic EPO, VEGFA and ANGPTL3 mRNA levels and kinetics [3] | elevation of ANGPTL-3 in serum ([4]; 10 μg/g FG-4592 i.p.) [fold] | time course of ANGPTL-3 induction ([4]; time-course study) | organ specificity, luciferase activity (RLU/mg tissue protein) in organ lysates ([5]; luc-ODD mice, s.c. or i.p. injection, versus PBS) | localization of luminescence, whole animal imaging ([5]; i.p. injection) | localization of luminescence, whole animal imaging ([5]; s.c. injection) | duration of HIF PHD inhibition ([5]; single intraperitoneal injection, time course in kidney and lung) |
| --- | --- | --- | --- | --- | --- | --- | --- | --- | --- | --- | --- | --- | --- | --- | --- | --- | --- | --- | --- | --- |
| COC(=O)CNC(=O)C(=O)OC [DMOG, dimethyl oxaloylglycine] | 3 |  |  |  |  |  |  |  |  |  |  |  |  |  |  |  |  |  |  |  |
| Cc1nc(C(=O)NCC(=O)O)c(O)c2ccc(Oc3ccccc3)cc12 [FG-4592] | 3 | approximately fifteen times more potent than DMOG | marked increase | 3 | maximal increase in HIF-1α in liver and kidney lysates | moderate but statistically significant increase | 6 | preservation of retinal vessels | at least the same benefit as DMOG, with a trend to superiority of FG-4592 | decrease in ischemic, hypoxic retina at P17 | identical rates of decrease of this region in treated and untreated animals | inhibits capillary drop-out better than DMOG | inhibits neovascularization subsequent to capillary drop-out better than DMOG | mirrored their corresponding serum protein concentrations | 6 | sustained induction, even 24 hours after FG-4592 treatment | specificity of FG-4592 for liver and kidney | liver- and kidney-specific luminescence | liver- and kidney-specific luminescence | at least 24 hours |
